For twelve compounds, IC50 results are on record in patent publication US7211585B2, “5-HT7 receptor antagonists” (Laboratorios del Dr. Esteve, S.A., priority 2004, dated 2007).

The structures appear in SMILES notation. Counter-ions that a name gives are not always drawn.

This assay deals with T1, Cloned Human Serotonin Receptor, subtype 7 (h5HT7) (Homo sapiens, UniProt P34969).
T1 construct: purchased PerkinElmer 6120512; host or cells: CHO cells (membranes coated on Basic FlashPlate, Cat. SMP200)
T1 sequence (P34969 whole entry): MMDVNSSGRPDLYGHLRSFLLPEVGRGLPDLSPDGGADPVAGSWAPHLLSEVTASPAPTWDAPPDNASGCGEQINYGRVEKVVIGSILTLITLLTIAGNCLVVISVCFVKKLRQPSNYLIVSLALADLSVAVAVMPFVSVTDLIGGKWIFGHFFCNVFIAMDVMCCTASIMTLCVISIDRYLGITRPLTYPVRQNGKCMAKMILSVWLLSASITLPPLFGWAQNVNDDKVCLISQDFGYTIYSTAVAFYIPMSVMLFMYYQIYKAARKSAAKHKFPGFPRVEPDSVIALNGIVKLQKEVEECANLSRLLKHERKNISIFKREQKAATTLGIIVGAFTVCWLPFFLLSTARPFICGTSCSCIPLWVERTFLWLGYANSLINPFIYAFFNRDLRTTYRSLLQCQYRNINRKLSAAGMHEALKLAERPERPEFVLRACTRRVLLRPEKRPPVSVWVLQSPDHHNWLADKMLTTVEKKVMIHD
In words: Radioligand binding assay, cloned human 5-HT7 receptor in CHO cells, [125I]LSD, Flashplate. To be noted: h5HT7 expressed in CHO cells; [125I]LSD 0.82 nM; triplicate determinations; read-out: 5-HT7 IC-50. The protocol: Biological Assays Radioligand Binding
Radioligand binding assays were performed using the Cloned Human Serotonin Receptor, subtype 7 (h5HT7), expressed in CHO cells, coated on Flashplate (Basic FlashPlate Cat.: SMP200) from PerkinElmer (Cat.: 6120512). The protocol assay was essentially the recommended protocol in the Technical Data Sheet by PerkinEmer Life and Analytical Sciences. The Mass membrane protein/well was typically 12 μg and the Receptor/well was about 9–10 fmoles. The Flashplate were let equilibrate at room temperature for one hour before the addition of the components of the assay mixture. The binding buffer was: 50 mM Trish-CHl, pH 7.4, containing 10 mM MgCl2, 0.5 mM EDTA and 0.5% BSA. The radioligand was [^125I]LSD at a final concentration of 0.82 nM. Nonspecific binding was determined with 50 μM of Clozapine. The assay volume was 25 μl. TopSeal-A were applied onto Flashplate microplates and they were incubated at room temperature for 240 minutes in darkness. The radioactivity were quantified by liquid scintillation spectrophotometry (Wallac 1450 Microbeta Trilux) with a count delay of 4 minutes prior to counting and a counting time of 30 seconds per well. Competition binding data were analyzed by using the LIGAND program (Munson and Rodbard, LIGAND: A versatile, computerized approach for characterization of ligand-binding systems. Anal. Biochem. 107: 220–239, 1980) and assays were performed in triplicate determinations for each point.
Consider `COc1cc2c(cc1OC)CN(CCCCNS(=O)(=O)c1cc(Cl)c(F)cc1F)CC2` [Compound 116, 5-Chloro-N-[4-(6,7-dimethoxy-3,4-dihydro-1H-isoquinolin-2-yl)-butyl]-2,4-difluoro-benzenesulfonamide], for which the IC50 turned out to be 31.1 nM.

On to `COc1cc2c(cc1OC)CN(CCCCNS(=O)(=O)c1ccccc1Br)CC2` [Compound 257, 2-Bromo-N-[4-(6,7-dimethoxy-3,4-dihydro-1H-isoquinolin-2-yl)-butyl]-benzenesulfonamidehydrochloride], for which the IC50 came out at 57.2 nM.

`O=S(=O)(NCCCCN1CCc2ccccc2C1)c1c(F)cc(F)cc1Br` [Compound 160, 2-Bromo-N-[4-(3,4-dihydro-1H-isoquinolin-2-yl)-butyl]-4,6-difluoro-benzenesulfonamidehydrochloride]: the IC50 is 74.4 nM.

In the case of `O=S(=O)(NCCCCN1CCc2ccccc2C1)c1ccccc1` [Compound 5, N-[4-(3,4-Dihydro-1H-isoquinolin-2-yl)-butyl]-benzenesulfonamidehydrochloride], the IC50 was determined as 33.2 nM.

Take `O=S(=O)(NCCCCN1CCc2ccccc2C1)c1cc(F)c(F)cc1F` [Compound 142, N-[4-(3,4-Dihydro-1H-isoquinolin-2-yl)-butyl]-2,4,5-trifluoro-benzenesulfonamidehydrochloride]: the IC50 was found to be 80.4 nM.

For the compound `COc1ccc(OC)c(S(=O)(=O)NCCCCN2CCc3cc(OC)c(OC)cc3C2)c1` [Compound 235, N-[4-(6,7-Dimethoxy-3,4-dihydro-1H-isoquinolin-2-yl)-butyl]-2,5-dimethoxy-benzenesulfonamidehydrochloride], the IC50 turned out to be 68.4 nM.

With `O=S(=O)(NCCCCN1CCc2ccccc2C1)c1ccc2ccccc2c1` [Compound 2, Naphthalene-2-sulfonic acid [4-(3,4-dihydro-1H-isoquinolin-2-yl)-butyl]-amide hydrochloride], the IC50 amounted to 59.2 nM.

As to `COc1cc2c(cc1OC)CN(CCCCNS(=O)(=O)c1cc(F)c(F)cc1Cl)CC2` [Compound 151, 2-Chloro-N-[4-(6,7-dimethoxy-3,4-dihydro-1H-isoquinolin-2-yl)-butyl]-4,5-difluoro-benzenesulfonamidehydrochloride], the IC50 worked out at 39 nM.

`O=S(=O)(NCCCCN1CCc2ccccc2C1)c1cc(F)ccc1F` [Compound 140, N-[4-(3,4-Dihydro-1H-isoquinolin-2-yl)-butyl]-2,5-difluoro-benzenesulfonamidehydrochloride]: the IC50 worked out at 60.8 nM.

Consider `COc1cc2c(cc1OC)CN(CCCCNS(=O)(=O)c1cccc(C)c1)CC2` [Compound 210, N-[4-(6,7-Dimethoxy-3,4-dihydro-1H-isoquinolin-2-yl)-butyl]-3-methyl-benzenesulfonamidehydrochloride], for which the IC50 was 37.3 nM.

Regarding `COc1cc2c(cc1OC)CN(CCCCNS(=O)(=O)c1ccccc1Cl)CC2` [Compound 118, 2-Chloro-N-[4-(6,7-dimethoxy-3,4-dihydro-1H-isoquinolin-2-yl)-butyl]-benzenesulfonamidehydrochloride], the IC50 was found to be 39.2 nM.

In the case of `COc1cc2c(cc1OC)CN(CCCCNS(=O)(=O)c1cc(C)c(Cl)cc1C)CC2` [Compound 220, 4-Chloro-N-[4-(6,7-dimethoxy-3,4-dihydro-1H-isoquinolin-2-yl)-butyl]-2,5-dimethyl-benzenesulfonamidehydrochloride], the IC50 was 67.4 nM.
